Source: patent publication US10537535B2, “Histone deacetylase inhibitors” (The Regents of the University of California, priority 2015, dated 2020)

What was measured:
human HDAC3 = target: T1, human HDAC3 (Homo sapiens, UniProt O15379); assay: Fluorometric HDAC activity assay, purified human HDAC3; format: biochemical; details: purified human HDAC3, n=4-5
T1 construct: purchased BPS Bioscience 50073
Experimental: (§1) In order to directly test whether diacetyl acts as an inhibitor of HDACs, in vitro acetylation assays was performed with purified human HDACs. In this example, β-hydroxybutyrate (a naturally-occurring HDAC inhibitor secreted by the liver, targeting zinc-dependent HDACs) was used for comparison. HDAC activity of class I HDACs (HDAC1, 2, 3 and 8) was measured with the fluorometric HDAC Activity Assay kit: HDAC1 (10011563, Cayman Chemical, Ann Arbor, Mich.), HDAC2, HDAC 3 and HDAC 8 (50062, 50073 and 50068, BPS Bioscience, San Diego, Calif.), according to the manufacturer's instructions.

[1] = system: H4K5 acetylation in HEK293 cells; assay: Western blot of histone acetylation in HEK293 nuclear extracts: H4K5; format: cell-based, human
Experimental: In order to test whether diacetyl can increase acetylation of histones in vivo, human HEK293 cells were used, which offer a tractable system to prepare nuclear extracts. The cells were exposed to different doses of diacetyl for 2 or 6 hours, and monitored histone acetylation levels by Western blot analysis from nuclear extract. […] The acetylation levels of H3K14 and H4K5 were not affected (FIG. 5A).
Human embryonic kidney 293 (HEK293) cells were grown in 100 mm cell culture dishes with Dulbecco's modified Eagle's medium (DMEM) (10-013, Corning, Manassas, Va.), supplemented with 10% fetal bovine serum (FBS) (26140-079, Gibco, Carlsbad, Calif.) at 37° C. with 5% CO2. Cells that were ˜80% confluent were treated with freshly-prepared medium supplemented with diacetyl at concentrations indicated. In order to prevent diffusion of diacetyl odor from the treatment dishes to the outside environment, the cell culture dishes were put into a custom-made container (155.6×155.6×85.7 mm) with a charcoal filter top. […]
Proteins in the nuclear extracts (60 μg protein) were separated by SDS-PAGE gels (456-1043, Bio-Rad, Hercules, Calif.), transferred onto PVDF membranes (162-0174, Bio-Rad), and incubated with anti-histone antibodies: acetylated H3K9 (1/2000: ab4441, abeam, Cambridge, Mass.), acetylated H3K14 (1/5000: 06-911, EMD Millipore, Billerica, Mass.), acetylated H4K5 (1/2000: 07-327, EMD Millipore). Bound antibody was detected by horseradish peroxidase-conjugated anti-rabbit secondary antibody (1/20000: 1705046, Bio-Rad) and developed using Clarity™ Western ECL Substrate (1705060, Bio-Rad). Signals were detected and captured by ImageQuant™ LAS 4000 mini (GE healthcare, Pittsburgh, Pa.), and band intensities were quantified with ImageJ software. H3K9 acetylation intensity in individual lanes was reported relative to the normalized Mock treatment (Mock H3K9ace/Mock PCNA), and calculated using this formula: Relative H3K9ace intensity for each timepoint=(Diacetyl H3K9ace/diacetyl PCNA)/(Mock H3K9ace/Mock PCNA).

human HDAC8 = target: T2, human HDAC8 (Homo sapiens, UniProt Q9BY41); assay: Fluorometric HDAC activity assay, purified human HDAC8; format: biochemical; details: purified human HDAC8, n=4-5
T2 construct: purchased BPS Bioscience 50068
T2 sequence (Q9BY41 1-377): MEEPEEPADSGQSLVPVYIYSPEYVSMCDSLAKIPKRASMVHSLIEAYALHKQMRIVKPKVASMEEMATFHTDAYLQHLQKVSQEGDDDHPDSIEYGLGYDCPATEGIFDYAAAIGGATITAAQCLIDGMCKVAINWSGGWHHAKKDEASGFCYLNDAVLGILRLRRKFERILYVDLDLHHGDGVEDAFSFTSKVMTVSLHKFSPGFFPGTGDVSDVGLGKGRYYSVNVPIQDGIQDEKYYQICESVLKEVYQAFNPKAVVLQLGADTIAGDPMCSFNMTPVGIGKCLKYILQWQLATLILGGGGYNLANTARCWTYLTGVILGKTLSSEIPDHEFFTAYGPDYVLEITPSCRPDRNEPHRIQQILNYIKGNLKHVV
Experimental: as §1

T1 sequence (O15379 whole entry): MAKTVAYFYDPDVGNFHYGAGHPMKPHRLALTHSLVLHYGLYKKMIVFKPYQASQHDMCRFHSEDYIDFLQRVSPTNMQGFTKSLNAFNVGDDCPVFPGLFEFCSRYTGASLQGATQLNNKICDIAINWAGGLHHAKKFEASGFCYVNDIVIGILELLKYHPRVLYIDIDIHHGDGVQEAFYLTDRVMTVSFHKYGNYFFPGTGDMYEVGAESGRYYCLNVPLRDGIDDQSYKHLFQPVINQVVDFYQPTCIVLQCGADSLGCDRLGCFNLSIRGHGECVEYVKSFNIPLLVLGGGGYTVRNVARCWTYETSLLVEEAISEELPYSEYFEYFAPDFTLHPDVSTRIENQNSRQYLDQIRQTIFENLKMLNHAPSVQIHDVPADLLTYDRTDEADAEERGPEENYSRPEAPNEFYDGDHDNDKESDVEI
T1 sequence (Q9Y618 395-489 partner limits assumed): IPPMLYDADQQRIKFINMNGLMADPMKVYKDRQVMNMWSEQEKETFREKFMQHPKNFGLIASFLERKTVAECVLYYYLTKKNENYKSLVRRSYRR

IC50 (human HDAC3): 7.72 mM
IC50 (human HDAC8): 11.4 mM
SMILES: CC(=O)C(C)=O [diacetyl, 2,3-Butanedione]
H4K5 acetylation level ([1]; 1 mM, 2 or 6 hours): did not alter
H4K5 acetylation level ([1]; 10 mM, 2 hours): not affected
H4K5 acetylation level ([1]; 10 mM, 6 hours): unaffected
